Values quoted from earlier work as cited in US7858379B2, “Apparatus and method for determining the concentration of iodine-containing organic compounds in an aqueous solution” (Lynntech, Inc., priority 2007, dated 2010).

Tests used:
[1] = through the process of glomerular filtration

Row | protein binding | excretion [1] | Structure (SMILES)
1 | do not bind to protein | totally excreted by the kidney | CC(=O)N(CC(O)CO)c1c(I)c(C(=O)NCC(O)CO)c(I)c(C(=O)NCC(O)CO)c1I (stereo not shown) [Iohexol]
2 | do not bind to protein | totally excreted by the kidney | CNC(=O)c1c(I)c(NC(C)=O)c(I)c(C(=O)O)c1I [Iothalamate]
